Results published in patent US11897862B2 (Gilead Sciences, Inc., priority 2022, dated 2024).
Read-outs that look alike come from different tables or passages of the source.

Columns and labels:
Format in all cases: cell-based
[1] = target: T1, IKZF1 (Homo sapiens, UniProt Q13422+Q96SW2); test: HEK293 HiBiT in vitro degradation of IKZF1; conditions: for Dmax: HEK293, HEK293 HiBiT, maximum degradation at the highest concentration tested; for DC50: HEK293 HiBiT, 18-24 hr incubation, normalized to DMSO control, read-out: IKZF1 EC50
T1 construct: expressed in transfected cells
T1 sequence (Q13422 whole entry): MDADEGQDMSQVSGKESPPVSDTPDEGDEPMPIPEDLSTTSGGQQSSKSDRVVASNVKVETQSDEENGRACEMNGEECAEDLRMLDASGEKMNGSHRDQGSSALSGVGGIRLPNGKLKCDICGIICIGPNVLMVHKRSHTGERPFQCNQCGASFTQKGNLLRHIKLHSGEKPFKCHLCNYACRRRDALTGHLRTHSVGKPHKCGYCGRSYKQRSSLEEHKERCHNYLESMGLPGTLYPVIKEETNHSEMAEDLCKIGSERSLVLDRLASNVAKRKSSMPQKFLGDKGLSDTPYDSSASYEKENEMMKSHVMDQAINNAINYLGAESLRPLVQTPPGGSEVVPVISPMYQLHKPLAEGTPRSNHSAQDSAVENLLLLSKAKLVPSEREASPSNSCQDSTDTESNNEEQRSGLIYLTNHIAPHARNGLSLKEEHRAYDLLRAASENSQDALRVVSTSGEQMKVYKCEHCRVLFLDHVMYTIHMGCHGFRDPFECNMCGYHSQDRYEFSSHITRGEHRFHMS
T1 sequence (Q96SW2 whole entry): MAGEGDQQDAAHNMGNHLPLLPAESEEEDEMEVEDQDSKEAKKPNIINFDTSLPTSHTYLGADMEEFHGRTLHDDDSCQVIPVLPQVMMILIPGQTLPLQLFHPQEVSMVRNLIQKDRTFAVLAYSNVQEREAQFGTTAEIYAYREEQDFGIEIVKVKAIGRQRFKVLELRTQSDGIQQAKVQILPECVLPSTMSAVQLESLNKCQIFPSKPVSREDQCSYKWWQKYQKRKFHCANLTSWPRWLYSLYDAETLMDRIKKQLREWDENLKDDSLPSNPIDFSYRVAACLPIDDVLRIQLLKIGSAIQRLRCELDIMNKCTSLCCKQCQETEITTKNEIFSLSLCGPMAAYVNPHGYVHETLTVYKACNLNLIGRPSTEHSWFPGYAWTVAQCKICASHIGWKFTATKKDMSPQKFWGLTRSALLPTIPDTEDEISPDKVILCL
T1 sequence (Q16531 whole entry partner): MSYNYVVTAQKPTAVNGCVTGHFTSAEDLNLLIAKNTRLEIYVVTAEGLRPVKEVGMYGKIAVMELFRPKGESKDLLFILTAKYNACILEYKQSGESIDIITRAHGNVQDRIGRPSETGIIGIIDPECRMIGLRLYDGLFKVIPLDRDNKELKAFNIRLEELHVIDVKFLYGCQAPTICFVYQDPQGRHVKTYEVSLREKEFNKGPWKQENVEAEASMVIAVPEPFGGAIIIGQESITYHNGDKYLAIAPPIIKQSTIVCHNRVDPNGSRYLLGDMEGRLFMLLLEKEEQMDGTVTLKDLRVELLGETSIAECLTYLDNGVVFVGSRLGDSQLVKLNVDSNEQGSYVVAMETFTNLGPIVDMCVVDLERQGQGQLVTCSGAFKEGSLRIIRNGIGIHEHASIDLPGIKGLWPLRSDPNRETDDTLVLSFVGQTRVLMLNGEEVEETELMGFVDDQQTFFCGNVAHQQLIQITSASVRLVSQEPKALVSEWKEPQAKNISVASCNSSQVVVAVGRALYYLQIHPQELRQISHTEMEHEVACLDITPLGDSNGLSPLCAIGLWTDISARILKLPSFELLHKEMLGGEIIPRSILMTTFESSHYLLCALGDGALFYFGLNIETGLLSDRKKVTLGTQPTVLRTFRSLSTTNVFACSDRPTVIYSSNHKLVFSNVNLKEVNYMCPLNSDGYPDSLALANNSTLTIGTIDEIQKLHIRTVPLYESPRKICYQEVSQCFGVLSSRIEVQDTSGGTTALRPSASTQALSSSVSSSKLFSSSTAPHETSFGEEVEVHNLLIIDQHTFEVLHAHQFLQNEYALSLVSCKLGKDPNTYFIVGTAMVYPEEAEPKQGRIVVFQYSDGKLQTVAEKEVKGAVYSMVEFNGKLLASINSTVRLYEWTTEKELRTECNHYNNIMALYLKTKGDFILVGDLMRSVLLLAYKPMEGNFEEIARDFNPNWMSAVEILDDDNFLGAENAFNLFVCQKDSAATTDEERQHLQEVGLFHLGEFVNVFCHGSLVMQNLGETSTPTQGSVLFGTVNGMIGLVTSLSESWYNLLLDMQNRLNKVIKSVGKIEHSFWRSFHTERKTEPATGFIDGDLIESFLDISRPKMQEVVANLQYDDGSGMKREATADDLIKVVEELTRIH
Summary of the method: (§1)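 Degradation was scored as loss of HiBiT signal from C-terminally tagged IKZF1, IKZF2 or SALL4 in doxycycline-induced Flp-In T-REx HEK293 cells after overnight (18-24 h) compound treatment. EC50 and Dmax were derived from the luminescence.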

[2] = target: T2, SALL4 (Homo sapiens, UniProt Q96SW2+Q9UJQ4); test: HEK293 HiBiT in vitro degradation of SALL4; conditions: 18-24 hr incubation, normalized to DMSO control, read-out: SALL4 EC50
T2 construct: expressed in transfected cells
T2 sequence (Q9UJQ4 whole entry): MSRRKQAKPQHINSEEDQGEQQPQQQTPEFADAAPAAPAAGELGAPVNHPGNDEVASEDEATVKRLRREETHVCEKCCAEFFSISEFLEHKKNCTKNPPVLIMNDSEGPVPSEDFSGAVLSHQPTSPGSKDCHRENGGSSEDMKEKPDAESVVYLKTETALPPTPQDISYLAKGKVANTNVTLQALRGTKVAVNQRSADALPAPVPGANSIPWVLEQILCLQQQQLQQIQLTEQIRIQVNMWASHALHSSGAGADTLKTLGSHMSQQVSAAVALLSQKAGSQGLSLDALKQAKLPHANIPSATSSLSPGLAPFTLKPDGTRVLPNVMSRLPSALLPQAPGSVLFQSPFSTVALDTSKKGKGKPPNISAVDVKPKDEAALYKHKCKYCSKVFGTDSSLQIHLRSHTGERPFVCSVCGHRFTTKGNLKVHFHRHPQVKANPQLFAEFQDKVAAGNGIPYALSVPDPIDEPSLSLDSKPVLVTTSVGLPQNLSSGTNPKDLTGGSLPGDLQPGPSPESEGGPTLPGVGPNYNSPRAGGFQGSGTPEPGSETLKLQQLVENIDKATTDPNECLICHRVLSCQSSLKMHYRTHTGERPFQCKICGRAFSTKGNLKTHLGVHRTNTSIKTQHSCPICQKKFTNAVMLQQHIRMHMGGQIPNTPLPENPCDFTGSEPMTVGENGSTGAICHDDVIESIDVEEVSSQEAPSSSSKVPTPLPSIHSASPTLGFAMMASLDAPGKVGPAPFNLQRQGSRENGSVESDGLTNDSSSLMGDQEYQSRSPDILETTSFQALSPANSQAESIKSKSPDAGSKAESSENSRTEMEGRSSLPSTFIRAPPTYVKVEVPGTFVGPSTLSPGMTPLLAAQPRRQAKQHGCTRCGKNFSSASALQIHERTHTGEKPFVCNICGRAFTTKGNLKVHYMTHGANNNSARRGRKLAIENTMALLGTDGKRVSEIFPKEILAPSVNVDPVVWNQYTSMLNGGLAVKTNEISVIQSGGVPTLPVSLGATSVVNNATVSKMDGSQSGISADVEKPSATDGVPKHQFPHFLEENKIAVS
T2 sequence (Q96SW2 whole entry): as the sequence (Q96SW2 whole entry) above
T2 sequence (Q16531 whole entry partner): as the sequence (Q16531 whole entry partner) above
Method: In vitro degradation of IKZF1, IKZF2, and SALL4 was measured using HiBiT protein tagging and detection technology (Promega).
HiBit technology was used to develop the quantitative assays to measure the cellular IKZFs level by tagging an 11 amino acid HiBit peptides […] to the protein of interest. Reporter plasmids were generated by fusing a linker sequence ([…]) followed by the HiBit tag at the C-terminus of IKZF1, IKZF2, and SALL4. The fusion fragments were subsequently cloned into pcDNA5 pcDNA™5/FRT/TO plasmids (Thermo Fisher, cat #V652020) downstream of the tetracycline operator. The resulting plasmids were co-transfected with pOG44 Flp-Recombinase Expression Vector (Thermo Fisher, cat #V600520) into Flp-In™ T-REx HEK293 line (Thermo Fisher, cat #R78077) and a stable cell pool was selected by adding 100 µg/ml of Hygromycin (Thermo Fisher, cat #10687010). The reporter cell enabled Tet-On inducible reporter expression from a single copy of the integrated gene.
On Day 1, Cells were grown to ˜80% confluency in tissue culture medium (DMEM Glutamax (Gibco10569), 10% Tet free FBS (Takara 631106), and PenStrep Glutamin (Gibco 10378)) in tissue culture flasks. Doxycycline was then added to a final concentration of […] to induce reporter expression at 37° C. overnight.
On Day 2, 125 nL of serially-diluted solution of testing compounds were dispensed into 384-well white solid assay plates via ECHO acoustic liquid handler. Cells were lifted by 0.25% Trypsin (Gibco 25200) then pelleted by centrifugation (Beckman Avanti J-E) at 500×g for 5 min. Cell pellets were resuspended in TC medium at the concentration of 3e5/mL and 25 μL of cell suspension were added into each well of compound-spotted plates. The plates were returned to a 37° C. incubator overnight (18-24 hr).
On Day 3, assay plates were removed from the tissue culture incubator and 25 μL of Nano-Glo lytic detection system (Promega, cat #N3030) was added to each well. Plates were incubated at r.t. for 3 min with shaking, and luminescence was read using an Envision reader (Perkin Elmer).
To assess the IKZF1, IKZF2, and SALL4 degrader potential of exemplified compounds of this disclosure and certain Reference Compounds EC50 and Dmax values were determined for the compounds of Examples 1 to 383 and Reference Compounds A-1, B-1, B-2, B-3, B-4, and C-1 in the HiBiT assays. Asterisks (*) indicate examples for which the data shown represents an average of n≥3.

[3] = target: T3, IKZF2 (Homo sapiens, UniProt Q96SW2+Q9UKS7); test: Human whole blood IKZF2 degradation (flow cytometry, CD4/CD25/Foxp3+ Treg cells); design: endogenous in cells; conditions: 24 hrs incubation, IKZF2 MFI in CD4/CD25/Foxp3+ Treg cells, flow cytometry; for DC50: read-out: IKZF2 EC50
Summary of the method: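 Fresh healthy-donor human whole blood stimulated with CD3/CD28 activator and serially diluted compound for 24 hrs at 37° C. IKZF2 MFI in CD4/CD25/Foxp3+ Tregs (IKZF1 MFI in CD4+ T cells) measured by flow cytometry after RBC lysis, fixation, permeabilization. EC50 and Dmax versus DMSO wells.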
Target sequence in this assay (Q9UKS7 whole entry): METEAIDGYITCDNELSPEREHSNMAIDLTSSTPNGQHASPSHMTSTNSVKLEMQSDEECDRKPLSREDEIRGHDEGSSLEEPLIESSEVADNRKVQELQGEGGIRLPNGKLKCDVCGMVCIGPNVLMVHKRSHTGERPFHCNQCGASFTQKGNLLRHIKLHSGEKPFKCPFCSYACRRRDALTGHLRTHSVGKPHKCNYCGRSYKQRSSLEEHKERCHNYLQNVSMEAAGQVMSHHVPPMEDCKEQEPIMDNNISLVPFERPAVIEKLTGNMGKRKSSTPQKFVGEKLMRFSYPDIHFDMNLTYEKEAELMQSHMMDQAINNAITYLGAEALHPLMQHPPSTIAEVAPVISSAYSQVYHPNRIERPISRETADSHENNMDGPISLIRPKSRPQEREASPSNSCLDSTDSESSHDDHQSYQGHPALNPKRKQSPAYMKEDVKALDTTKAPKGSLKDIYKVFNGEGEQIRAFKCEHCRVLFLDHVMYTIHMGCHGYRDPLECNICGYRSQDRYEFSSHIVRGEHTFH
Target sequence in this assay (Q96SW2 whole entry): as the sequence (Q96SW2 whole entry) above
Target sequence in this assay (Q16531 whole entry partner): as the sequence (Q16531 whole entry partner) above

[4] = target: T3, IKZF2; test: HEK293 HiBiT in vitro degradation of IKZF2; design: expressed in transfected cells; conditions: for Dmax: HEK293, HEK293 HiBiT; for DC50: 18-24 hr incubation, normalized to DMSO control, read-out: IKZF2 EC50
Summary of the method: as §1
Target sequence in this assay (Q9UKS7 1-500 isoform Q9UKS7-2): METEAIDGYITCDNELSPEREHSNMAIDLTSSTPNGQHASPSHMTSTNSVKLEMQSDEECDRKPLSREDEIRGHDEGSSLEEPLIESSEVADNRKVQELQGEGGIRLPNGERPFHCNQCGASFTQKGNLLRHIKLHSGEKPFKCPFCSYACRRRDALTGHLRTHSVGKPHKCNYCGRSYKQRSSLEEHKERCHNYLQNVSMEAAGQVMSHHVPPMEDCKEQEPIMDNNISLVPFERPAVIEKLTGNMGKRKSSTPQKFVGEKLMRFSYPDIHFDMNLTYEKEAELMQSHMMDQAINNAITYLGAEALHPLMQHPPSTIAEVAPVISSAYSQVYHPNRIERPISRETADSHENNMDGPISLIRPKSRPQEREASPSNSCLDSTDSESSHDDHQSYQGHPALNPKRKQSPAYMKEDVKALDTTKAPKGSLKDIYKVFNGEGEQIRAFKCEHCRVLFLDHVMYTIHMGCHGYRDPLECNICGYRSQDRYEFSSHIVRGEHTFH
Target sequence in this assay (Q96SW2 whole entry): as the sequence (Q96SW2 whole entry) above
Target sequence in this assay (Q16531 whole entry partner): as the sequence (Q16531 whole entry partner) above

[5] = target: T3, IKZF2; test: HEK293 IKZF2 degradation kinetics (HiBiT, timepoints 1-24 h); design: expressed in transfected cells; conditions: HEK293, IKZF2; timepoints 1, 2, 3, 4.5 and 24 hour; read-out: Maximum degradation rate Kinact (converted)
Method: The assay technology and principles for evaluating IKZF2 degradation kinetics in HEK293 cells was identical to the HEK293 degradation assay as described above. Additional details are briefly described below.
On Day 1, Cells were grown and induced the same as described above. On Days 2 and 3, compounds for testing were dispensed via ECHO and cells were lifted and plated into compound-spotted assay plates as above. Plates were returned to the 37° C. incubator until addition of Nano-Glo lytic reagent at 1, 2, 3, 4.5, and 24 hour timepoints. At these timepoints, plates were read on Envision reader as above.
All raw data was normalized to DMSO control (final concentration: 0.5%) wells as POC and plotted out as a function of time to generate the degradation rate constant (K) value. The maximum degradation rate (Kinact) was determined by plotting the K value as a function of concentration for each compound tested. Kinact values are shown in Table 25 and the degradation rate plots as well as timecourse of degradation are shown for select compounds in FIG. 1A, FIG. 1B, FIG. 2A and FIG. 2B.
Target sequence in this assay (Q9UKS7 1-500 isoform Q9UKS7-2): as the sequence (Q9UKS7 1-500 isoform Q9UKS7-2) above
Target sequence in this assay (Q96SW2 whole entry): as the sequence (Q96SW2 whole entry) above
Target sequence in this assay (Q16531 whole entry partner): as the sequence (Q16531 whole entry partner) above

[6] = system: IL-2 production in Jurkat cells; test: Jurkat IL-2 functional assay (ELISA of supernatants); conditions: Homo sapiens; for maximal fold induction: Jurkat, top of the curve fit; for EC50: overnight incubation
Method: (§2) Jurkat cell line (ATCC, Clone E6-1), highly expresses IKZF2 and lends it an appropriate system to screen degradation along with a functional readout. Jurkat cells were grown to 80% confluency in TC medium (RPMI containing glutamax, 10% FBS, 1% NEAA, and 1% Pen/Strep Glutamin in tissue culture flasks.
(§3) The cells were spun down at 400 g for 5 mins and counted. 100 K cells per well were added to a 96-well plate. The compounds were introduced starting at 10 μM and dilutions were made 1:10 for each compound. 100 μL of compound was added to each well for a 12-point titration. The cells were incubated at 37° C. with 5% CO2 overnight.
The following day, supernatants were collected for a functional readout using ELISA. The supernatants were diluted 1:2 and added to appropriate Human IL-2 plates for IL-2 functional readout.
The top of the curve fit for each compound is reported as the IL-2 ‘fold increase over DMSO control.’

[7] = target: T3, IKZF2; test: Jurkat IKZF2 degradation (flow cytometry); design: endogenous in cells; conditions: Jurkat cells, overnight incubation; for DC50: flow cytometry, normalized to DMSO control, read-out: IKZF2 Degradation EC50; for Dmax: maximum degradation at the highest concentration tested
Method: as §2, §3
Target sequence in this assay (Q9UKS7 whole entry): as the sequence (Q9UKS7 whole entry) above
Target sequence in this assay (Q96SW2 whole entry): as the sequence (Q96SW2 whole entry) above
Target sequence in this assay (Q16531 whole entry partner): as the sequence (Q16531 whole entry partner) above
Cells were stained with appropriate surface and intracellular antibodies and acquired by flow cytometry and analysed for degradation. […]

[8] = maximum degradation at the highest concentration tested
[9] = ELISA of supernatants, read-out: IL-2 Production Fold increase over DMSO control
[10] = read-out: increase in IL-2 production relative to DMSO control

Structure (SMILES)	Dmax [1] [%]	DC50 [1] [nM]	DC50 [2] [nM]	Dmax [3] [%]	DC50 [3] [nM]	Dmax [4, 8] [%]	DC50 ([4]; HEK293 HiBiT) [nM]	kinact [5] [s⁻¹]	IKZF2 Dmax ([4]; HEK293 HiBiT, maximum degradation at the highest concentration tested) [%]	maximal fold induction [6, 9]	maximal fold induction [6, 10]	EC50 ([6]; ELISA of supernatants) [nM]	DC50 [7] [nM]	Dmax [7] [%]
O=C1CCC(N2Cc3c(ccc(C[C@H]4OCCC[C@@H]4N[C@H]4CC[C@H](F)CC4)c3F)C2=O)C(=O)N1 (single isomer, unassigned) [Example 289]	31	632	> 10000	90	5	97	5	0.000131						
CC(N[C@H]1CCCO[C@@H]1Cc1ccc2c(c1F)CN(C1CCC(=O)NC1=O)C2=O)C1CCOCC1 (single isomer, unassigned) [Example 291]		> 1000	> 10000	96	5	94	10	8.61e-05						
CC1CC[C@H](NC2CCC(F)(F)CC2)[C@@H](Cc2ccc3c(c2)CN(C2CCC(=O)NC2=O)C3=O)C1 (single isomer, unassigned) [Example 325]		> 1000	> 10000				5	0.000108	95					
O=C1CC[C@@H](N2Cc3cc(C[C@H]4CCCC[C@@H]4NC4CCC(F)(F)CC4)ccc3C2=O)C(=O)N1 (single isomer, unassigned) [Example 329]	53	50	> 10000	97	4	98	2	0.000158						
CCN[C@H]1CCCC[C@@H]1Cc1ccc2c(c1)CN(C1CCC(=O)NC1=O)C2=O (stereo partly drawn) [Example 35, 3-(5-(((1R,2S)-2-(ethylamino)cyclohexyl)methyl)-1-oxoisoindolin-2-yl)piperidine-2,6-dione]	31	261				94	29			1.9	≥ 1.9	141	3.9	83
O=C1CCC(N2Cc3cc(C[C@H]4CCCC[C@@H]4NC4CCCCC4)ccc3C2=O)C(=O)N1 (stereo partly drawn) [Example 53, 3-(5-(((1R,2S)-2-(cyclohexylamino)cyclohexyl)methyl)-1-oxoisoindolin-2-yl)piperidine-2,6-dione]		> 1000		96	4	96	3	0.000147						
O=C1CCC(N2Cc3c(ccc(C[C@H]4CCCC[C@@H]4NC4CCC(F)(F)CC4)c3F)C2=O)C(=O)N1 (stereo partly drawn) [Example 84, 3-(5-(((1R,2S)-2-((4,4-difluorocyclohexyl)amino)cyclohexyl)methyl)-4-fluoro-1-oxoisoindolin-2-yl)piperidine-2,6-dione]	68	28		93	1	97	1			2.6	≥ 1.9	0.2	0.05	97
O=C1CCC(N2Cc3c(ccc(C[C@H]4CCCC[C@@H]4NC4CCCC4)c3F)C2=O)C(=O)N1 (stereo partly drawn) [Example 87, 3-(5-(((1R,2S)-2-(cyclopentylamino)cyclohexyl)methyl)-4-fluoro-1-oxoisoindolin-2-yl)piperidine-2,6-dione]	39	62		95	3	98	2	0.000139						
O=C1CCC(N2Cc3c(ccc(C[C@H]4OCCC[C@@H]4NC4CCC(F)(F)CC4)c3F)C2=O)C(=O)N1 (stereo partly drawn) [Example 94, 3-(5-(((2R,3S)-3-((4,4-difluorocyclohexyl)amino)tetrahydro-2H-pyran-2-yl)methyl)-4-fluoro-1-oxoisoindolin-2-yl)piperidine-2,6-dione]		> 10000		90	7	96	10			2.1	≥ 1.9	2.3	2	88
O=C1CCC(N2Cc3c(ccc(C[C@H]4CCCC[C@@H]4NC4CCOCC4)c3F)C2=O)C(=O)N1 (stereo partly shown) [Example 116]	34	44		89	1	98	2	0.00015						
O=C1CCC(N2Cc3c(ccc(C[C@H]4OCCC[C@@H]4NC4CCCCC4)c3F)C2=O)C(=O)N1 (stereo partly shown) [Example 181]		> 1000		99	8	96	6	0.000106						
CCN[C@H]1CCCC[C@@H]1Oc1ccc2c(c1)CN(C1CCC(=O)NC1=O)C2=O (stereo partly shown) [Example B-2]						93				1.8		18		83
O=C1CCC(N2Cc3cc(O[C@H]4CCCC[C@@H]4NC4CCC(F)(F)CC4)ccc3C2=O)C(=O)N1 (stereo partly shown) [Example B-4]				97		98		0.000144		1.8		7.8		94
